# Results taken from the OligoGym collection.
# HELM strings list units from the 5' end as sugar, base in round brackets, then linkage (d deoxyribose, r ribose, m 2'-O-methyl, p phosphodiester). Strings are as the collection lists them; they lack the last nucleoside at the 3' end of the tested compound. [moe] = 2'-O-(2-methoxyethyl) (MOE); [sp] = phosphorothioate linkage; [m5C] = 5-methylcytosine
# Molecular target: APP
# Test: mouse, dose not given
# Conditions: ASO
row,Substance,3 h FOB score [score 0-7]
1,RNA1{[moe](T)[sp].[moe]([m5C])p.[moe](T)p.[moe](T)p.[moe]([m5C])[sp].d(T)[sp].d(T)[sp].d([m5C])[sp].d([m5C])[sp].d(A)[sp].d([m5C])[sp].d([m5C])[sp].d(T)[sp].d([m5C])[sp].d(A)[sp].[moe](G)p.[moe]([m5C])p.[moe]([m5C])[sp].[moe](A)}$$$$ (last 3' nucleoside missing),0.5
2,RNA1{[moe](T)[sp].[moe]([m5C])p.[moe](T)p.[moe](T)p.[moe]([m5C])[sp].d([m5C])[sp].d([m5C])[sp].d(A)[sp].d([m5C])[sp].d(A)[sp].d(T)[sp].d(T)[sp].d(A)[sp].d(T)[sp].d(T)[sp].[moe]([m5C])p.[moe](T)p.[moe](A)[sp].[moe](T)}$$$$ (last 3' nucleoside missing),0
3,RNA1{[moe](T)[sp].[moe]([m5C])p.[moe](T)p.[moe]([m5C])p.[moe](A)[sp].d(T)[sp].d(A)[sp].d(G)[sp].d(T)[sp].d([m5C])[sp].d(T)[sp].d(T)[sp].d(A)[sp].d(A)[sp].d(T)[sp].[moe](T)p.[moe]([m5C])p.[moe]([m5C])[sp].[moe]([m5C])}$$$$ (last 3' nucleoside missing),0
4,RNA1{[moe](T)[sp].[moe]([m5C])p.[moe](T)p.[moe]([m5C])p.[moe](T)[sp].d([m5C])[sp].d(A)[sp].d(T)[sp].d(A)[sp].d(G)[sp].d(T)[sp].d([m5C])[sp].d(T)[sp].d(T)[sp].d(A)[sp].[moe](A)p.[moe](T)p.[moe](T)[sp].[moe]([m5C])}$$$$ (last 3' nucleoside missing),0
5,RNA1{[moe](T)[sp].[moe]([m5C])p.[moe](T)p.[moe]([m5C])p.[moe]([m5C])[sp].d(A)[sp].d(A)[sp].d(T)[sp].d(T)[sp].d(T)[sp].d(T)[sp].d(A)[sp].d(A)[sp].d([m5C])[sp].d(T)[sp].[moe](T)p.[moe](G)p.[moe]([m5C])[sp].[moe](A)}$$$$ (last 3' nucleoside missing),0
6,RNA1{[moe](T)[sp].[moe]([m5C])p.[moe]([m5C])p.[moe](A)p.[moe](A)[sp].d(A)[sp].d(G)[sp].d(A)[sp].d(T)[sp].d(T)[sp].d([m5C])[sp].d([m5C])[sp].d(A)[sp].d([m5C])[sp].d(T)[sp].[moe](T)p.[moe](T)p.[moe]([m5C])[sp].[moe](T)}$$$$ (last 3' nucleoside missing),0.5
7,RNA1{[moe](T)[sp].[moe]([m5C])p.[moe]([m5C])p.[moe](A)p.[moe](A)[sp].d(T)[sp].d(T)[sp].d(T)[sp].d(T)[sp].d(A)[sp].d(A)[sp].d([m5C])[sp].d(T)[sp].d(T)[sp].d(G)[sp].[moe]([m5C])p.[moe](A)p.[moe]([m5C])[sp].[moe]([m5C])}$$$$ (last 3' nucleoside missing),0.5
8,RNA1{[moe](T)[sp].[moe]([m5C])p.[moe]([m5C])p.[moe](A)p.[moe](T)[sp].d([m5C])[sp].d(T)[sp].d(T)[sp].d([m5C])[sp].d(A)[sp].d([m5C])[sp].d(T)[sp].d(T)[sp].d([m5C])[sp].d(A)[sp].[moe](G)p.[moe](A)p.[moe](G)[sp].[moe](A)}$$$$ (last 3' nucleoside missing),0.5
9,RNA1{[moe](T)[sp].[moe]([m5C])p.[moe]([m5C])p.[moe](G)p.[moe](A)[sp].d(G)[sp].d(T)[sp].d([m5C])[sp].d(A)[sp].d(T)[sp].d([m5C])[sp].d([m5C])[sp].d(T)[sp].d([m5C])[sp].d([m5C])[sp].[moe](T)p.[moe]([m5C])p.[moe]([m5C])[sp].[moe](G)}$$$$ (last 3' nucleoside missing),1
10,RNA1{[moe](T)[sp].[moe]([m5C])p.[moe]([m5C])p.[moe]([m5C])p.[moe](A)[sp].d(T)[sp].d(A)[sp].d([m5C])[sp].d(A)[sp].d(T)[sp].d(G)[sp].d(A)[sp].d(T)[sp].d(T)[sp].d(T)[sp].[moe](T)p.[moe](A)p.[moe](G)[sp].[moe](G)}$$$$ (last 3' nucleoside missing),1.25
11,RNA1{[moe]([m5C])[sp].[moe](A)[sp].[moe](T)p.[moe]([m5C])p.[moe](A)[sp].d([m5C])[sp].d(T)[sp].d(T)[sp].d(A)[sp].d([m5C])[sp].d(A)[sp].d(A)[sp].d(A)[sp].d([m5C])[sp].d(T)[sp].[moe]([m5C])p.[moe](A)p.[moe]([m5C])[sp].[moe]([m5C])}$$$$ (last 3' nucleoside missing),0
12,RNA1{[moe]([m5C])[sp].[moe](A)p.[moe](A)p.[moe](A)p.[moe](G)[sp].d(A)[sp].d(T)[sp].d(T)[sp].d([m5C])[sp].d([m5C])[sp].d(A)[sp].d([m5C])[sp].d(T)[sp].d(T)[sp].d(T)[sp].[moe]([m5C])p.[moe](T)p.[moe]([m5C])[sp].[moe]([m5C])}$$$$ (last 3' nucleoside missing),7
13,RNA1{[moe]([m5C])[sp].[moe](A)p.[moe](G)p.[moe]([m5C])p.[moe]([m5C])[sp].d([m5C])[sp].d([m5C])[sp].d(A)[sp].d(A)[sp].d(A)[sp].d(A)[sp].d(G)[sp].d(A)[sp].d(A)[sp].d(T)[sp].[moe](G)p.[moe]([m5C])p.[moe]([m5C])[sp].[moe](A)}$$$$ (last 3' nucleoside missing),0.5
14,RNA1{[moe]([m5C])[sp].[moe](A)p.[moe](T)p.[moe](G)p.[moe](A)[sp].d(G)[sp].d(T)[sp].d([m5C])[sp].d([m5C])[sp].d(A)[sp].d(A)[sp].d(T)[sp].d(G)[sp].d(A)[sp].d(T)[sp].[moe](T)p.[moe](G)p.[moe]([m5C])[sp].[moe](A)}$$$$ (last 3' nucleoside missing),5.5
15,RNA1{[moe]([m5C])[sp].[moe](A)p.[moe](T)p.[moe](G)p.[moe](G)[sp].d([m5C])[sp].d(T)[sp].d(T)[sp].d([m5C])[sp].d([m5C])[sp].d(A)[sp].d([m5C])[sp].d(T)[sp].d([m5C])[sp].d(T)[sp].[moe](G)p.[moe](G)p.[moe]([m5C])[sp].[moe]([m5C])}$$$$ (last 3' nucleoside missing),1
16,RNA1{[moe]([m5C])[sp].[moe](A)p.[moe](T)p.[moe](G)p.[moe]([m5C])[sp].d(G)[sp].d([m5C])[sp].d(T)[sp].d([m5C])[sp].d(A)[sp].d(T)[sp].d(A)[sp].d(A)[sp].d(A)[sp].d(T)[sp].[moe]([m5C])p.[moe](A)p.[moe]([m5C])[sp].[moe](A)}$$$$ (last 3' nucleoside missing),3.5
17,RNA1{[moe]([m5C])[sp].[moe](A)p.[moe](T)p.[moe](T)p.[moe]([m5C])[sp].d(T)[sp].d([m5C])[sp].d(T)[sp].d(T)[sp].d(A)[sp].d(T)[sp].d(A)[sp].d(T)[sp].d(T)[sp].d([m5C])[sp].[moe]([m5C])p.[moe](T)p.[moe](T)[sp].[moe](A)}$$$$ (last 3' nucleoside missing),0
18,RNA1{[moe]([m5C])[sp].[moe](A)p.[moe](T)p.[moe]([m5C])p.[moe](A)[sp].d([m5C])[sp].d(T)[sp].d(T)[sp].d(A)[sp].d([m5C])[sp].d(A)[sp].d(A)[sp].d(A)[sp].d([m5C])[sp].d(T)[sp].[moe]([m5C])p.[moe](A)p.[moe]([m5C])[sp].[moe]([m5C])}$$$$ (last 3' nucleoside missing),0.5
19,RNA1{[moe]([m5C])[sp].[moe](A)p.[moe]([m5C])p.[moe]([m5C])p.[moe](A)[sp].d(T)[sp].d([m5C])[sp].d(T)[sp].d(A)[sp].d(T)[sp].d(A)[sp].d(A)[sp].d(T)[sp].d(A)[sp].d([m5C])[sp].[moe]([m5C])p.[moe](A)p.[moe](T)[sp].[moe]([m5C])}$$$$ (last 3' nucleoside missing),0
20,RNA1{[moe]([m5C])[sp].[moe](A)p.[moe]([m5C])p.[moe]([m5C])p.[moe](T)[sp].d([m5C])[sp].d(A)[sp].d(G)[sp].d([m5C])[sp].d([m5C])[sp].d(A)[sp].d([m5C])[sp].d(T)[sp].d(T)[sp].d([m5C])[sp].[moe](T)p.[moe](T)p.[moe]([m5C])[sp].[moe]([m5C])}$$$$ (last 3' nucleoside missing),0.5
21,RNA1{[moe]([m5C])[sp].[moe](G)p.[moe](A)p.[moe](G)p.[moe](A)[sp].d(T)[sp].d(A)[sp].d([m5C])[sp].d(T)[sp].d(T)[sp].d(G)[sp].d(T)[sp].d([m5C])[sp].d(A)[sp].d(A)[sp].[moe]([m5C])p.[moe](G)p.[moe](G)[sp].[moe]([m5C])}$$$$ (last 3' nucleoside missing),2.33
22,RNA1{[moe]([m5C])[sp].[moe](G)p.[moe](G)p.[moe](A)p.[moe]([m5C])[sp].d(T)[sp].d(T)[sp].d(T)[sp].d(T)[sp].d(T)[sp].d(T)[sp].d([m5C])[sp].d(T)[sp].d(T)[sp].d([m5C])[sp].[moe](T)p.[moe](T)p.[moe](G)[sp].[moe]([m5C])}$$$$ (last 3' nucleoside missing),0
23,RNA1{[moe]([m5C])[sp].[moe](G)p.[moe](G)p.[moe]([m5C])p.[moe](A)[sp].d(G)[sp].d(T)[sp].d(T)[sp].d(T)[sp].d(A)[sp].d(A)[sp].d(A)[sp].d(A)[sp].d(T)[sp].d(T)[sp].[moe]([m5C])p.[moe](T)p.[moe]([m5C])[sp].[moe](T)}$$$$ (last 3' nucleoside missing),0
24,RNA1{[moe]([m5C])[sp].[moe](G)p.[moe](T)p.[moe](G)p.[moe](T)[sp].d(G)[sp].d(T)[sp].d(A)[sp].d(T)[sp].d([m5C])[sp].d([m5C])[sp].d(T)[sp].d([m5C])[sp].d(T)[sp].d(T)[sp].[moe](A)p.[moe](A)p.[moe](T)[sp].[moe](T)}$$$$ (last 3' nucleoside missing),1
25,RNA1{[moe]([m5C])[sp].[moe](T)[sp].[moe](T)p.[moe]([m5C])p.[moe]([m5C])[sp].d([m5C])[sp].d(A)[sp].d(T)[sp].d(T)[sp].d([m5C])[sp].d(T)[sp].d([m5C])[sp].d(T)[sp].d([m5C])[sp].d(A)[sp].[moe](T)p.[moe](G)p.[moe](A)[sp].[moe]([m5C])}$$$$ (last 3' nucleoside missing),1
